From PubChem BioAssay AID2060505 (Molecular Pharmacology Branch, DTP, NCI, 2025)

Test system: 633275-114-R-J1-PDC complex spheroids, viability
Assay: Anticancer human tumor 633275-114-R-J1-PDC patient-derived endometrial adenocarcinoma cell line growth inhibition [GQUAD]
Details: for IC50: curve of first compound; for viability, T/C: stronger effect = lower value
Method in brief: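 Multi-cell-type spheroids of tumor cells with HUVEC and mesenchymal stem cells, treated with drug combinations. Concentrations descend in half-log steps from near clinical Cmax, or from 10 microM where Cmax is unknown; viability read-out.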

[1] = second compound 0.0316 µM, first compound 0.0316 µM
[2] = second compound 0.0316 µM, first compound 0.1 µM
[3] = second compound 0.0316 µM, first compound 0.316 µM
[4] = second compound 0.0316 µM, first compound 1 µM
[5] = second compound 0.0316 µM, first compound 3.16 µM
[6] = second compound 0.0316 µM, first compound 10 µM
[7] = second compound 0.1 µM, first compound 0.0316 µM
[8] = second compound 0.1 µM, first compound 0.1 µM
[9] = second compound 0.1 µM, first compound 0.316 µM
[10] = second compound 0.1 µM, first compound 1 µM
[11] = second compound 0.1 µM, first compound 3.16 µM
[12] = second compound 0.1 µM, first compound 10 µM
[13] = second compound 0.316 µM, first compound 0.0316 µM
[14] = second compound 0.316 µM, first compound 0.1 µM
[15] = second compound 0.316 µM, first compound 0.316 µM
[16] = second compound 0.316 µM, first compound 1 µM
[17] = second compound 0.316 µM, first compound 3.16 µM
[18] = second compound 0.316 µM, first compound 10 µM
[19] = second compound 1 µM, first compound 0.0316 µM
[20] = second compound 1 µM, first compound 0.1 µM
[21] = second compound 1 µM, first compound 0.316 µM
[22] = second compound 1 µM, first compound 1 µM
[23] = second compound 1 µM, first compound 3.16 µM
[24] = second compound 1 µM, first compound 10 µM
[25] = second compound 3.16 µM, first compound 0.0316 µM
[26] = second compound 3.16 µM, first compound 0.1 µM
[27] = second compound 3.16 µM, first compound 0.316 µM
[28] = second compound 3.16 µM, first compound 1 µM
[29] = second compound 3.16 µM, first compound 3.16 µM
[30] = second compound 3.16 µM, first compound 10 µM
[31] = second compound 10 µM, first compound 0.0316 µM
[32] = second compound 10 µM, first compound 0.1 µM
[33] = second compound 10 µM, first compound 0.316 µM
[34] = second compound 10 µM, first compound 1 µM
[35] = second compound 10 µM, first compound 3.16 µM
[36] = second compound 10 µM, first compound 10 µM
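Also: spheroids exposed to the agents for seven days.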
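For viability, T/C in this document: percent of DMSO vehicle control viability which is 100%.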

Q: How did the IC50 (second compound 0.0316 µM) turn out when `COc1cccc2c1C(=O)c1c(O)c3c(c(O)c1C2=O)CC(O)(C(=O)CO)CC3OC1CC(N)C(O)C(C)O1` (stereo unspecified) + CN(C)c1ccc(Nc2c3ccc(NC(=O)CCN4CCCC4)cc3nc3cc(NC(=O)CCN4CCCC4)ccc23)cc1 was run?
A: 91.8 nM

Q: What about the IC50 (second compound 0.1 µM) of the same molecule?
A: 77.9 nM

Q: And the IC50 (second compound 0.316 µM)?
A: 73.2 nM

Q: And the IC50 (second compound 1 µM)?
A: 65.5 nM

Q: What about the IC50 (second compound 3.16 µM) of the same molecule?
A: 47.1 nM

Q: And the IC50 (second compound 10 µM)?
A: < 31.6 nM

Q: What about the viability, T/C [1] of the same molecule?
A: 62.9%

Q: What about the viability, T/C [2] of the same molecule?
A: 48.1%

Q: What about the viability, T/C [3] of the same molecule?
A: 32%

Q: What about the viability, T/C [4] of the same molecule?
A: 20.6%

Q: What about the viability, T/C [5] of the same molecule?
A: 1.62%

Q: What about the viability, T/C [6] of the same molecule?
A: 2.01%

Q: And the viability, T/C [7]?
A: 62.7%

Q: And the viability, T/C [8]?
A: 45%

Q: What about the viability, T/C [9] of the same molecule?
A: 31%

Q: And the viability, T/C [10]?
A: 18.3%

Q: What about the viability, T/C [11] of the same molecule?
A: 1.63%

Q: And the viability, T/C [12]?
A: 2.02%

Q: And the viability, T/C [13]?
A: 63.6%

Q: And the viability, T/C [14]?
A: 43.5%

Q: And the viability, T/C [15]?
A: 30.1%

Q: And the viability, T/C [16]?
A: 18.9%

Q: And the viability, T/C [17]?
A: 2.31%

Q: What about the viability, T/C [18] of the same molecule?
A: 1.97%

Q: And the viability, T/C [19]?
A: 59.1%

Q: And the viability, T/C [20]?
A: 42%

Q: What about the viability, T/C [21] of the same molecule?
A: 33.6%

Q: What about the viability, T/C [22] of the same molecule?
A: 15.2%

Q: What about the viability, T/C [23] of the same molecule?
A: 3.04%

Q: What about the viability, T/C [24] of the same molecule?
A: 1.66%

Q: And the viability, T/C [25]?
A: 56.9%

Q: What about the viability, T/C [26] of the same molecule?
A: 35.7%

Q: And the viability, T/C [27]?
A: 29.4%

Q: And the viability, T/C [28]?
A: 16.1%

Q: What about the viability, T/C [29] of the same molecule?
A: 2.59%

Q: What about the viability, T/C [30] of the same molecule?
A: 1.1%

Q: What about the viability, T/C [31] of the same molecule?
A: 25.3%

Q: And the viability, T/C [32]?
A: 17.3%

Q: And the viability, T/C [33]?
A: 10%

Q: And the viability, T/C [34]?
A: 7.22%

Q: What about the viability, T/C [35] of the same molecule?
A: 0.49%

Q: What about the viability, T/C [36] of the same molecule?
A: 0.61%

Q: With `Nc1ccn(C2OC(CO)C(O)C2(F)F)c(=O)n1` (stereo unspecified) + CN(C)c1ccc(Nc2c3ccc(NC(=O)CCN4CCCC4)cc3nc3cc(NC(=O)CCN4CCCC4)ccc23)cc1 as the molecule, how does the IC50 (second compound 0.0316 µM) read?
A: < 31.6 nM

Q: And the IC50 (second compound 0.1 µM)?
A: < 31.6 nM

Q: And the IC50 (second compound 0.316 µM)?
A: < 31.6 nM

Q: And the IC50 (second compound 1 µM)?
A: < 31.6 nM

Q: And the IC50 (second compound 3.16 µM)?
A: < 31.6 nM

Q: And the IC50 (second compound 10 µM)?
A: < 31.6 nM

Q: What about the viability, T/C [1] of the same molecule?
A: 27.4%

Q: And the viability, T/C [2]?
A: 20.1%

Q: What about the viability, T/C [3] of the same molecule?
A: 23.8%

Q: What about the viability, T/C [4] of the same molecule?
A: 23.6%

Q: And the viability, T/C [5]?
A: 20.7%

Q: And the viability, T/C [6]?
A: 20.5%

Q: And the viability, T/C [7]?
A: 27.1%

Q: What about the viability, T/C [8] of the same molecule?
A: 20.7%

Q: And the viability, T/C [9]?
A: 24%

Q: What about the viability, T/C [10] of the same molecule?
A: 22.4%

Q: What about the viability, T/C [11] of the same molecule?
A: 21.5%

Q: What about the viability, T/C [12] of the same molecule?
A: 19.3%

Q: And the viability, T/C [13]?
A: 29.6%

Q: And the viability, T/C [14]?
A: 21%

Q: What about the viability, T/C [15] of the same molecule?
A: 25.6%

Q: What about the viability, T/C [16] of the same molecule?
A: 22.9%

Q: What about the viability, T/C [17] of the same molecule?
A: 19.7%

Q: And the viability, T/C [18]?
A: 17.7%

Q: And the viability, T/C [19]?
A: 27.7%

Q: And the viability, T/C [20]?
A: 20.1%

Q: What about the viability, T/C [21] of the same molecule?
A: 22%

Q: And the viability, T/C [22]?
A: 21.1%

Q: What about the viability, T/C [23] of the same molecule?
A: 22.4%

Q: And the viability, T/C [24]?
A: 19.6%

Q: And the viability, T/C [25]?
A: 24.6%

Q: And the viability, T/C [26]?
A: 20.6%

Q: What about the viability, T/C [27] of the same molecule?
A: 19.3%

Q: What about the viability, T/C [28] of the same molecule?
A: 18.6%

Q: What about the viability, T/C [29] of the same molecule?
A: 20.6%

Q: And the viability, T/C [30]?
A: 18.6%

Q: And the viability, T/C [31]?
A: 12.9%

Q: What about the viability, T/C [32] of the same molecule?
A: 11.6%

Q: And the viability, T/C [33]?
A: 11.7%

Q: What about the viability, T/C [34] of the same molecule?
A: 11.7%

Q: What about the viability, T/C [35] of the same molecule?
A: 11%

Q: And the viability, T/C [36]?
A: 9%

Q: With `O=c1[nH]cc(F)c(=O)[nH]1` + CN(C)c1ccc(Nc2c3ccc(NC(=O)CCN4CCCC4)cc3nc3cc(NC(=O)CCN4CCCC4)ccc23)cc1 as the molecule, how does the IC50 (second compound 0.0316 µM) read?
A: > 10000 nM

Q: And the IC50 (second compound 0.1 µM)?
A: > 10000 nM

Q: What about the IC50 (second compound 0.316 µM) of the same molecule?
A: > 10000 nM

Q: And the IC50 (second compound 1 µM)?
A: > 10000 nM

Q: And the IC50 (second compound 3.16 µM)?
A: > 10000 nM

Q: And the IC50 (second compound 10 µM)?
A: < 31.6 nM

Q: And the viability, T/C [1]?
A: 112%

Q: What about the viability, T/C [2] of the same molecule?
A: 96%

Q: And the viability, T/C [3]?
A: 96.9%

Q: And the viability, T/C [4]?
A: 88.1%

Q: What about the viability, T/C [5] of the same molecule?
A: 88.5%

Q: What about the viability, T/C [6] of the same molecule?
A: 66%

Q: What about the viability, T/C [7] of the same molecule?
A: 97.6%

Q: What about the viability, T/C [8] of the same molecule?
A: 98.8%

Q: And the viability, T/C [9]?
A: 91.4%

Q: What about the viability, T/C [10] of the same molecule?
A: 96.6%

Q: And the viability, T/C [11]?
A: 88.4%

Q: And the viability, T/C [12]?
A: 76.5%

Q: What about the viability, T/C [13] of the same molecule?
A: 86.9%

Q: And the viability, T/C [14]?
A: 90.1%

Q: And the viability, T/C [15]?
A: 97.3%

Q: And the viability, T/C [16]?
A: 100%

Q: And the viability, T/C [17]?
A: 86.2%

Q: What about the viability, T/C [18] of the same molecule?
A: 66.2%

Q: What about the viability, T/C [19] of the same molecule?
A: 79.8%

Q: What about the viability, T/C [20] of the same molecule?
A: 91.8%

Q: What about the viability, T/C [21] of the same molecule?
A: 98.9%

Q: What about the viability, T/C [22] of the same molecule?
A: 99%

Q: And the viability, T/C [23]?
A: 84.9%

Q: And the viability, T/C [24]?
A: 64.3%

Q: And the viability, T/C [25]?
A: 83.2%

Q: And the viability, T/C [26]?
A: 85.9%

Q: And the viability, T/C [27]?
A: 85.2%

Q: What about the viability, T/C [28] of the same molecule?
A: 74%

Q: What about the viability, T/C [29] of the same molecule?
A: 77.9%

Q: And the viability, T/C [30]?
A: 56.8%

Q: What about the viability, T/C [31] of the same molecule?
A: 36%

Q: What about the viability, T/C [32] of the same molecule?
A: 38.3%

Q: What about the viability, T/C [33] of the same molecule?
A: 30.2%

Q: What about the viability, T/C [34] of the same molecule?
A: 33.1%

Q: And the viability, T/C [35]?
A: 32.2%

Q: And the viability, T/C [36]?
A: 26.4%
